In publication PMC7827085 (Pharmaceutics, 2021):

What was measured:
[1] = molecular target: T1, ABCC1/MRP1 (Homo sapiens, UniProt P33527); conditions: Sf9/ABCC1 membrane vesicles
[2] = molecular target: T2, ABCG2/BCRP (Homo sapiens, UniProt Q9UNQ0); assay: in vitro; conditions: for IC50 at 40 min: human; for Effect on ABCG2-dependent PG-DA extrusion (in words): PLB-985/ABCG2 cells
T2 sequence (Q9UNQ0 1-655): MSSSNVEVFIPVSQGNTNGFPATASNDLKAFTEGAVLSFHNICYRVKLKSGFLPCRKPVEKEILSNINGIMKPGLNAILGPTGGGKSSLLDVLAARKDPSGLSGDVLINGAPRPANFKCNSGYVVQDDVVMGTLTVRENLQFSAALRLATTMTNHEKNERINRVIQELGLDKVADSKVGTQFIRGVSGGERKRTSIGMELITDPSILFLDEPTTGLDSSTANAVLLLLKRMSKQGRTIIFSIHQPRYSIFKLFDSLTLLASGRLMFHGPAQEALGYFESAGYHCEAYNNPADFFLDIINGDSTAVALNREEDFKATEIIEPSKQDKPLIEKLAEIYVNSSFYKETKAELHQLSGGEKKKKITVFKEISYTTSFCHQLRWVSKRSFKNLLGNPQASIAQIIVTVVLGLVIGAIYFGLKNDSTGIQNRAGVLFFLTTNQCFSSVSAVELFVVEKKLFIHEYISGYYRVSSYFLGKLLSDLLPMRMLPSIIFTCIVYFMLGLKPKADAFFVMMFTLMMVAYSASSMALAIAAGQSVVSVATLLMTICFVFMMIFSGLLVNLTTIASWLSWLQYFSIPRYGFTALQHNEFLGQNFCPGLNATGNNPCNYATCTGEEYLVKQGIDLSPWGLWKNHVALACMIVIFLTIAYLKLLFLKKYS
Description: (§1) For the ABC transporter assays, we used both cell-based and membrane-based functional assays. […] The respective transport activities were assayed by measuring the cellular fluorescence of the respective transported substrates Phengreen (ABCG2) and Calcein (ABCB1 and ABCC1).
(§2) The cells were kept on ice until the flow cytometry measurements. All experiments were performed in triplicate and in at least three biological parallels. […] The PhenGreen (PG) or Calcein signal was detected in the BL1 channel (emission filter: 530/30 nm). Analysis of the data was carried out by the Attune Nxt Cytometer Software v3.1.2 (Thermo Fischer Scientific, Waltham, MA, USA). The inhibition of transporter activity was calculated by comparing the fluorescence in the presence of the test compound to that in the presence of a specific inhibitor providing maximum inhibition. […] Half-maximum inhibition (IC50) values were calculated by using the Origin2019 software (9.6.5.169, OriginLab Corporation, Northampton, MA, USA). […] In these experiments, we measured Hoechst dye extrusion in HeLa cells stably expressing eGFP and the ABCG2 variants driven by the same promoter—the transgenic cells generated by the Sleeping Beauty transposon system. […] For details, see Zámbó et al.). […] The maximum inhibition was defined for each variant as the fluorescence difference of the samples incubated with and without Ko143, respectively. […] Data analysis was performed using the Attune Nxt Cytometer Software v3.1.2. Two samples per condition and three biological replicates were examined in each experiment.
Here, we used both PhenGreen-SK diacetate and Hst dye for these measurements. The PhenGreen (PG) assay is a recently patented method applied for ensuring an efficient ABCG2 transport measurement, as the non-fluorescent PhenGreen diacetate (PG-DA) is actively extruded by ABCG2 and the cellular fluorescence is correlated with ABCG2 transport activity. Therefore, we applied this assay to characterize the test drug interactions in intact PLB-985 cells expressing high levels of the ABCG2 protein. […] ABCG2 inhibition by the test compounds was estimated by their relative (%) inhibition compared to full inhibition by Ko143.

[3] = molecular target: ABCB1/MDR1/Pgp (Homo sapiens, UniProt P08183); assay: in vitro; conditions: for Effect on ABCB1-dependent CaAM extrusion (in words): PLB-985/ABCB1 cells, test compounds 0.2–50 µM; for IC50 at 40 min: human
Description: as §1
(§3) The cells were kept on ice until the flow cytometry measurements. All experiments were performed in triplicate and in at least three biological parallels.
as §2
ABCB1 is a high-affinity active efflux transporter of the viability dye Calcein-AM (CaAM). […] Here, we applied this widely used cellular assay (see https://www.solvobiotech.com/services/categories/dye-efflux-assays) to characterize drug interactions of the applied compounds in intact PLB-985 cells, expressing high levels of the ABCB1 protein.

[4] = molecular target: T2, ABCG2/BCRP; assay: biochemical; conditions: for IC50 at 10 min: human
Description: These were employed at 37 °C for 10 min (ABCG2), 1 min (ABCB1), or 3 min (ABCC1), with or without 4 mM Mg-ATP, in a 50 μL final volume. The known reference inhibitors of the transporters (1 µM Ko143 for ABCG2, 1 µM Valspodar for ABCB1, and 200 µM Benzbromarone for ABCC1) served as controls. Each test compound was dissolved in DMSO and a 1 µL volume was added to the samples. After incubation, the samples were filtered and washed, and the substrates in the vesicles were dissolved in 10% SDS and transferred onto another plate. After the addition of a stabilizer, the fluorescence was measured in plate readers (Victor X3 and Enspire Perkin-Elmer, Waltham, MA, USA), while the activity of the radiolabeled substrate was measured by liquid scintillation counting (Perkin Elmer MicroBeta2 liquid scintillation counter, Perkin Elmer, Waltham, MA, USA). ABC transporter-related vesicular transport was calculated by subtracting uptake measured in the presence of Mg-AMP from the values measured in the presence of Mg-ATP.
The effects of the test compounds on ABCG2 activity were also measured in a vesicular transport assay by using inverted membrane vesicles prepared from HEK-293 cells expressing high levels of the ABCG2 transporter.

[5] = molecular target: T1, ABCC1/MRP1; assay: in vitro; conditions: for Effect on ABCC1-dependent CaAM extrusion (in words): HL60/ABCC1 cells; for IC50 at 40 min: human
Description: as §1, §3, §2
Therefore, we applied this assay to characterize the test drug interactions in intact HL60 cells expressing high levels of the ABCC1 protein.

Sequence of ABCB1/MDR1/Pgp (P08183 whole entry): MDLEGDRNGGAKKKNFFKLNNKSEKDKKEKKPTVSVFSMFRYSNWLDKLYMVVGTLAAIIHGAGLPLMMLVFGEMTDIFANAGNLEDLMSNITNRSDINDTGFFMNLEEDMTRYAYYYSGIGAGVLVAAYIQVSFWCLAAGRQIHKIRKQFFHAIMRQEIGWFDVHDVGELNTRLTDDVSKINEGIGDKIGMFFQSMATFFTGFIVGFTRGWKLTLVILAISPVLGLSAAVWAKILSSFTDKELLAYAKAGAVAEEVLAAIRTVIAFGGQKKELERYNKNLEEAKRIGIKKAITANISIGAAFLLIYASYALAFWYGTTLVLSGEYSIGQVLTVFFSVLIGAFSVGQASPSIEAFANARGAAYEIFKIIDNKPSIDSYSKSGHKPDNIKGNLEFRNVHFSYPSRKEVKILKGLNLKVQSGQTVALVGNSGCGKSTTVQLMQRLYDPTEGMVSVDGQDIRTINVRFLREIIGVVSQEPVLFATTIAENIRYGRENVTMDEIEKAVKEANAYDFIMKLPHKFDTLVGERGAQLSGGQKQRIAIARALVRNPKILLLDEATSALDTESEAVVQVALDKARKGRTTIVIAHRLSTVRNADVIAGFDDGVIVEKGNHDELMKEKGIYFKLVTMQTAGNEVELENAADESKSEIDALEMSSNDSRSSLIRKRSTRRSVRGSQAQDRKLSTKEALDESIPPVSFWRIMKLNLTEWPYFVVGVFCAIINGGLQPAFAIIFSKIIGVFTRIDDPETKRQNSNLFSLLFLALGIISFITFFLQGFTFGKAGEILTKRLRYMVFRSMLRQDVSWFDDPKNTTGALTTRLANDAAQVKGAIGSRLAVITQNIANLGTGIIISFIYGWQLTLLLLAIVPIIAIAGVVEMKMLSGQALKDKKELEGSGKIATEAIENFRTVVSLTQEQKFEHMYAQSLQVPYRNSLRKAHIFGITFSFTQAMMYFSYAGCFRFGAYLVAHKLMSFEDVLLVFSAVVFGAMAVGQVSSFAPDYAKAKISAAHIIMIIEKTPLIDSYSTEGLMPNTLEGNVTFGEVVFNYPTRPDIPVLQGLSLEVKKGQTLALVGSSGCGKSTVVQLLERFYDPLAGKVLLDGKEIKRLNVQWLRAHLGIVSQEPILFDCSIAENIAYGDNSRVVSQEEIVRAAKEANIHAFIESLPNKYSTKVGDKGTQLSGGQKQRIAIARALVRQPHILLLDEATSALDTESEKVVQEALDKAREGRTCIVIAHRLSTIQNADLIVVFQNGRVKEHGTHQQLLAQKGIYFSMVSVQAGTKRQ
T1 sequence (P33527 whole entry): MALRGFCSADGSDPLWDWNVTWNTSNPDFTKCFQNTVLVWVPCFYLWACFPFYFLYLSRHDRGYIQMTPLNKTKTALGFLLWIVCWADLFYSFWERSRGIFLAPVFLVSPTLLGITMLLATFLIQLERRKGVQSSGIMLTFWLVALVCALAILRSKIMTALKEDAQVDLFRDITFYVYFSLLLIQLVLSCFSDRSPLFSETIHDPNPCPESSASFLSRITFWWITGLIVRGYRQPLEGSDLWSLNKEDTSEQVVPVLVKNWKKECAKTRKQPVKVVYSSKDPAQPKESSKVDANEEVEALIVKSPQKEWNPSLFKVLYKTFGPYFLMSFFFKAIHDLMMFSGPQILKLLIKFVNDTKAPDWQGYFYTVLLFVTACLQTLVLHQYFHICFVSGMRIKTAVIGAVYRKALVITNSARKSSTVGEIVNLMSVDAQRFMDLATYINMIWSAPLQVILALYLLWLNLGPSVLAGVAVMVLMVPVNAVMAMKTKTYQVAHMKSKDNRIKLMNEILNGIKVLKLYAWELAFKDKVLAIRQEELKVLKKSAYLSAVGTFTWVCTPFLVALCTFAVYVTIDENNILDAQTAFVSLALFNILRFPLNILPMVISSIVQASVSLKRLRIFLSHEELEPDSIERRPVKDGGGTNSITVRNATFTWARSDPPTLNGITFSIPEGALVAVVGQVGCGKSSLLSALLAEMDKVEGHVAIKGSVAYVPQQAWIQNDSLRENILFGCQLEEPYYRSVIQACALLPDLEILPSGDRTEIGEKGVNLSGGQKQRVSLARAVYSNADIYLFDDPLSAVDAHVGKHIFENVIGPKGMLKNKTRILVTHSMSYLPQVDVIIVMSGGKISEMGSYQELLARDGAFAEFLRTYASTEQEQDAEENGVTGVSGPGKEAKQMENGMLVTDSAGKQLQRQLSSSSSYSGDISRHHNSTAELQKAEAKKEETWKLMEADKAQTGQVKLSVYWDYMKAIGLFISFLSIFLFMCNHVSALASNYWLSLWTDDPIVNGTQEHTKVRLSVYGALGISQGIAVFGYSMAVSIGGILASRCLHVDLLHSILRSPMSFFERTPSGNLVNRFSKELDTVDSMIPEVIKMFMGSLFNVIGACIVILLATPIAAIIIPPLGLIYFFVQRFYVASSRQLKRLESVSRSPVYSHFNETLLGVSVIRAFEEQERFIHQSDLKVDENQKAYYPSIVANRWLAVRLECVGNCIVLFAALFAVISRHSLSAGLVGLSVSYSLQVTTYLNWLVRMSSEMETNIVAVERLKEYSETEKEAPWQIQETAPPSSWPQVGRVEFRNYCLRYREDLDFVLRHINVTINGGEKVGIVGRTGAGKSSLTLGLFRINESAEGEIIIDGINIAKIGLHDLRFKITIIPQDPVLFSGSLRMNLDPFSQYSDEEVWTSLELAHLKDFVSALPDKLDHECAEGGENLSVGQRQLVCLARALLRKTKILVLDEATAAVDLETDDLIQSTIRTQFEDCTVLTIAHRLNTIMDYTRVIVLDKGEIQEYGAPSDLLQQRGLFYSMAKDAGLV

SMILES | Concentration above which ABCC1 vesicular ETGB transport was stimulated [1] | Effect on ABCC1 vesicular ETGB transport (in words) [1] | IC50 at 40 min [2] [µM] | Effect on ABCB1-dependent CaAM extrusion (in words) [3] | IC50 at 40 min [3] [µM] | IC50 [4] [µM] | IC50 at 10 min [4] [µM] | Effect on ABCC1-dependent CaAM extrusion (in words) [5] | Effect on ABCG2-dependent PG-DA extrusion (in words) [2] | IC50 at 40 min ([2]; intact PLB-985 cells expressing ABCG2, probe PhenGreen-SK diacetate, 0.25 µM) [µM] | IC50 at 40 min ([3]; intact PLB-985 cells expressing ABCB1, probe Calcein-AM, 0.25 µM) [µM] | IC50 at 10 min ([4]; probe lucifer yellow, 5 µM) [µM] | IC50 at 40 min ([5]; intact HL60 cells expressing ABCC1, probe Calcein-AM, 0.25 µM) [µM] | Effect on ABCG2 ATP-dependent LY uptake (in words) ([4]; HEK-293/ABCG2 membrane vesicles) | IC50 at 40 min [5] [µM]
CCC(CC)COC(=O)[C@H](C)N[P@](=O)(OC[C@H]1O[C@@](C#N)(c2ccc3c(N)ncnn23)[C@H](O)[C@@H]1O)Oc1ccccc1 [remdesivir] | above 25 μM | significantly stimulated | > 50 | did not significantly inhibit | > 50 | > 20 | > 50 | did not significantly inhibit | – | – | – | – | – | – | –
NC(=O)c1nc(F)c[nH]c1=O [favipiravir] | – | practically no effect | – | did not significantly inhibit | – | – | – | did not significantly inhibit | practically no effect | > 50 | > 50 | > 50 | > 50 | – | –
CCN(CCO)CCCC(C)Nc1ccnc2cc(Cl)ccc12 (stereo not shown) [hydroxychloroquine] | – | practically no effect | > 50 | practically no effect | > 50 | – | > 50 | practically no effect | practically no effect | – | – | – | – | practically no effect | > 50
